Test results as given in the NIST ThermoML archive (doi:10.1016/j.jct.2009.11.010).

How the values were obtained:
[1] = molar heat capacity at constant pressure; details: 101.33 kPa, Vacuum adiabatic calorimetry
[2] = for vapor or sublimation pressure: Inclined piston gauge
[3] = molar heat capacity at saturation pressure; details: Vacuum adiabatic calorimetry
[4] = Molar enthalpy of transition or fusion; details: Crystal; Adiabatic calorimetry

c1ccc2nc3ccccc3nc2c1 [phenazine]
Details	Triple point temperature [K]	molar heat capacity [J/K/mol]	molar heat capacity at constant pressure [J/K/mol]	vapor or sublimation pressure [kPa]
[1], 5 K, Crystal	–	–	0.38	–
[1], 10 K, Crystal	–	–	2.76	–
[1], 20 K, Crystal	–	–	13.34	–
[1], 30 K, Crystal	–	–	25.08	–
[1], 40 K, Crystal	–	–	35.19	–
[1], 50 K, Crystal	–	–	43.5	–
[1], 60 K, Crystal	–	–	50.49	–
[1], 70 K, Crystal	–	–	56.66	–
[1], 80 K, Crystal	–	–	62.3	–
[1], 90 K, Crystal	–	–	67.8	–
[1], 100 K, Crystal	–	–	73.23	–
[1], 120 K, Crystal	–	–	84.23	–
[1], 140 K, Crystal	–	–	95.77	–
[1], 160 K, Crystal	–	–	107.87	–
[1], 180 K, Crystal	–	–	120.51	–
[1], 200 K, Crystal	–	–	133.66	–
[1], 220 K, Crystal	–	–	147.13	–
[1], 240 K, Crystal	–	–	160.98	–
[1], 260 K, Crystal	–	–	175.01	–
[1], 280 K, Crystal	–	–	188.99	–
[1], 298.15 K, Crystal	–	–	201.63	–
[1], 300 K, Crystal	–	–	202.93	–
[1], 320 K, Crystal	–	–	216.89	–
[1], 340 K, Crystal	–	–	230.56	–
[1], 360 K, Crystal	–	–	244.06	–
[1], 380 K, Crystal	–	–	257.36	–
[1], 400 K, Crystal	–	–	270.46	–
[1], 420 K, Crystal	–	–	283.41	–
[1], 440 K, Crystal	–	–	296.01	–
[1], 447.91 K, Crystal	–	–	300.87	–
[1], 447.91 K, Liquid	–	–	331.96	–
[1], 460 K, Liquid	–	–	337	–
[1], 480 K, Liquid	–	–	345.14	–
[1], 500 K, Liquid	–	–	353.07	–
[1], 520 K, Liquid	–	–	360.67	–
[2], 389.95 K, Crystal	–	–	–	0.0331
[2], 400.01 K, Crystal	–	–	–	0.0682
[2], 410 K, Crystal	–	–	–	0.1346
[2], 420 K, Crystal	–	–	–	0.2572
[2], 430 K, Crystal	–	–	–	0.476
[2], 449.96 K, Liquid	–	–	–	1.444
[2], 454.97 K, Liquid	–	–	–	1.754
[2], 460.06 K, Liquid	–	–	–	2.127
[2], 464.96 K, Liquid	–	–	–	2.548
[2], 469.96 K, Liquid	–	–	–	3.05
[2], 471.96 K, Liquid	–	–	–	3.273
[2], Crystal, Adiabatic calorimetry	447.91	–	–	–
[3], 6.135 K, Crystal	–	0.71	–	–
[3], 7.091 K, Crystal	–	1.09	–	–
[3], 8.146 K, Crystal	–	1.57	–	–
[3], 9.073 K, Crystal	–	2.09	–	–
[3], 9.999 K, Crystal	–	2.77	–	–
[3], 11.1 K, Crystal	–	3.68	–	–
[3], 12.32 K, Crystal	–	4.78	–	–
[3], 13.68 K, Crystal	–	6.14	–	–
[3], 15.19 K, Crystal	–	7.78	–	–
[3], 16.85 K, Crystal	–	9.645	–	–
[3], 18.69 K, Crystal	–	11.81	–	–
[3], 20.75 K, Crystal	–	14.23	–	–
[3], 23.04 K, Crystal	–	16.99	–	–
[3], 25.58 K, Crystal	–	20	–	–
[3], 28.4 K, Crystal	–	23.28	–	–
[3], 31.54 K, Crystal	–	26.77	–	–
[3], 35.04 K, Crystal	–	30.43	–	–
[3], 38.95 K, Crystal	–	34.21	–	–
[3], 43.3 K, Crystal	–	38.1	–	–
[3], 48.12 K, Crystal	–	42.05	–	–
[3], 52.7 K, Crystal	–	45.41	–	–
[3], 53.49 K, Crystal	–	46.07	–	–
[3], 57.63 K, Crystal	–	48.91	–	–
[3], 59.46 K, Crystal	–	50.14	–	–
[3], 63.45 K, Crystal	–	52.68	–	–
[3], 69.82 K, Crystal	–	56.56	–	–
[3], 76.91 K, Crystal	–	60.58	–	–
[3], 84.71 K, Crystal	–	64.9	–	–
[3], 93.41 K, Crystal	–	69.64	–	–
[3], 102.69 K, Crystal	–	74.69	–	–
[3], 112.24 K, Crystal	–	79.93	–	–
[3], 121.98 K, Crystal	–	85.34	–	–
[3], 131.78 K, Crystal	–	90.96	–	–
[3], 141.72 K, Crystal	–	96.78	–	–
[3], 148.27 K, Crystal	–	100.69	–	–
[3], 151.74 K, Crystal	–	102.79	–	–
[3], 157 K, Crystal	–	106	–	–
[3], 161.79 K, Crystal	–	108.99	–	–
[3], 166.83 K, Crystal	–	112.14	–	–
[3], 176.79 K, Crystal	–	118.44	–	–
[3], 186.88 K, Crystal	–	124.97	–	–
[3], 197.06 K, Crystal	–	131.7	–	–
[3], 207.29 K, Crystal	–	138.54	–	–
[3], 217.54 K, Crystal	–	145.45	–	–
[3], 227.79 K, Crystal	–	152.5	–	–
[3], 238.02 K, Crystal	–	159.59	–	–
[3], 248.23 K, Crystal	–	166.76	–	–
[3], 258.43 K, Crystal	–	173.9	–	–
[3], 268.62 K, Crystal	–	181.08	–	–
[3], 278.79 K, Crystal	–	188.12	–	–
[3], 288.98 K, Crystal	–	195.25	–	–
[3], 292.45 K, Crystal	–	197.59	–	–
[3], 299.09 K, Crystal	–	202.31	–	–
[3], 303.14 K, Crystal	–	205.11	–	–
[3], 315.26 K, Crystal	–	213.62	–	–
[3], 327.34 K, Crystal	–	221.93	–	–
[3], 339.58 K, Crystal	–	230.27	–	–
[3], 341.22 K, Crystal	–	231.31	–	–
[3], 351.33 K, Crystal	–	238.27	–	–
[3], 362.68 K, Crystal	–	245.89	–	–
[3], 375.17 K, Crystal	–	254.22	–	–
[3], 383.74 K, Crystal	–	259.84	–	–
[3], 387.73 K, Crystal	–	262.47	–	–
[3], 394.22 K, Crystal	–	266.7	–	–
[3], 400.35 K, Crystal	–	270.7	–	–
[3], 404.56 K, Crystal	–	273.47	–	–
[3], 413.04 K, Crystal	–	278.97	–	–
[3], 415.93 K, Crystal	–	280.86	–	–
[3], 426.29 K, Crystal	–	287.62	–	–
[3], 428.38 K, Crystal	–	288.92	–	–
[3], 438.38 K, Crystal	–	296.29	–	–
[3], 439.14 K, Crystal	–	296.66	–	–
[3], 453.29 K, Liquid	–	334.17	–	–
[3], 455.84 K, Liquid	–	335.26	–	–
[3], 456.63 K, Liquid	–	335.61	–	–
[3], 460.6 K, Liquid	–	337.14	–	–
[3], 461.49 K, Liquid	–	337.63	–	–
[3], 475.45 K, Liquid	–	343.31	–	–
[3], 490.19 K, Liquid	–	349.18	–	–
[3], 504.28 K, Liquid	–	354.75	–	–
[3], 510.36 K, Liquid	–	357.26	–	–
[3], 516.76 K, Liquid	–	359.48	–	–

Details	Molar enthalpy of transition or fusion [kcal/mol]
[4]	5.956
